Measurements taken from PMC4738272 (Scientific Reports, 2016).
Where “and” joins values, the source holds several entries; their conditions need not be identical. Identical values can stand only once. Entries after “also recorded” stand apart in the source; their conditions may differ.

Tests used:
Liver = system: Liver; design: method as in Literature; conditions: general toxic effects reported in the literature; ref Literature; cited from earlier work
Neurons [1] = system: Neurons; design: method as in Literature; conditions: general toxic effects reported in the literature; ref Literature; cited from earlier work
[2] = system: iPSc differentiated Cardiomyocytes; test: Cardiac beating frequency from video recordings; type: cell-based, human; conditions: 4-organ co-culture under flow, 48 h drug treatment, day 7, vs control; for Cardiomyocyte beating rate (beat frequency), decrease: DOX 5 μM, AMAP 5 mM; for Cardiomyocyte beating rate (beat frequency), increase: ATR 100 μM, VPA 2 mM, APAP 5 mM
Protocol: Seven or fourteen days after the co-culture, cardiac beating frequency was quantified from video recordings of three different areas of each of the cMEA surfaces, where the cardiomyocytes culture where located. Surfaces were located in a 37 °C bath platform containing co-culture medium with 50 mM HEPES on the stage of a Zeiss Axioscope 2FS upright microscope. Beats were counted in a period of 10 s, and the average number of 3 values was obtained. Drug effect was plotted as percentage of change compared to the control conditions.

neurons [3] = test: Neuron electrophysiology recording (patch clamp); type: cell-based, human; conditions: 4-organ co-culture under flow, 48 h drug treatment, day 7, vs control, DOX 5 μM, ATR 100 μM, APAP 5 mM, AMAP 5 mM; for Neuronal electrophysiology, overall effect: VPA 2 mM
Text: Electrophysiological properties of neuron cultures where recorded on the last day of co-culture following a previously described method. Values of firing, repetitive firing, spontaneous firing, inward sodium current, outward potassium current, action potential peak voltage and the resting membrane potential, characterized the mature functionality of neurons in the in vitro system. Drug alterations of the neuronal electrophysiology are discussed in this manuscript.

[4] = system: iPSc differentiated Cardiomyocytes; test: MTT viability of cardiac module in 4-organ system; conditions: 4-organ co-culture under flow, serum-free medium, 48 h drug treatment, day 7, vs control, DOX 5 μM, ATR 100 μM, VPA 2 mM, APAP 5 mM, AMAP 5 mM
Text: (§1) The four organ in vitro systems were assembled, on day 0, by placing the corresponding surfaces cell side up in a specific chamber of the housing (liver coverslip into chamber 1, cardiac coverslips and cantilevers into chambers 2 and 4, muscle coverslips into chamber 5, and neuron coverslips into chamber 3 and they were then topped with the serum-free co-culture medium (1X Neurobasal Medium, 1X B27, 1X AB/AM, 1X Glutamax (all from Life Technologies)) before locking the system. Right after assembling, the medium was completely replaced with 4 mL of the co-culture defined serum-free medium and the systems placed on a rocking platform inside an incubator. Platforms were checked every day by inspecting for expected cell morphology inside the system and by replacing medium (1.2 mL total volume) from the two reservoirs (30% of the total volume was replaced) with fresh medium. Drug incubation was initiated on day 5 of the co-culture by addition of the drug through the reservoir closer to the liver chamber (no. 1), allowing a first contact of the drug with the liver. 20 μL of the drug stock solution (or vehicle) to achieve a working concentration in 4 mL of total volume in the platform was utilized. On day 6, after 24 hours of drug incubation, 6 μL of the drug stock solution (or vehicle) was added to the fresh medium exchange volume (1.2 mL). After 48 hour of drug incubation, on day 7, systems were disassembled to test organ functionality that same day. For mono-culture conditions, surfaces remained in a 12-well plated with 1 mL of the co-culture defined serum-free medium maintained by daily replacement of half volume.
(§2) Seven days after the initiation of the co-culture, viability of each organ chamber, except for neurons, was evaluated through an MTT assay. […] Cell viability was measured at 570 nm in a Synergy HT plate reader and KC4 software. The results were expressed as the percentage of cell survival relative to the control (untreated or incubated with vehicle). The neuronal fraction viability was evaluated through morphological analysis throughout the co-culture experiment as the final coverslips were used for patch-clamp electrophysiology. Phase images (10X) where obtained every day of the co-culture. Neuronal viability was evaluated by cell morphology integrity and by cell count from day 1 to day 14.

Muscle = system: Muscle; design: method as in Literature; conditions: general toxic effects reported in the literature; ref Literature; cited from earlier work
HepG2/C3A [5] = test: Urea quantification, liver fraction of 4-organ system; type: cell-based, human; conditions: 4-organ co-culture under flow, 48 h drug treatment, vs control
Human Skeletal Myofibers [6] = test: Myotube stimulated contraction (binary: contracting or not); type: cell-based; conditions: 4-organ co-culture under flow, 48 h drug treatment, day 7, broad-field electrical stimulation, DOX 5 μM, ATR 100 μM, VPA 2 mM, APAP 5 mM, AMAP 5 mM
Protocol: Myotube contraction in coverslips was evaluated after the co-culture was finalized. Individual surfaces were evaluated as previously reported in the group. Drugs effects were quantify in a binary code mode, cells were or were not contracting.

Human Skeletal Myofibers [7] = test: MTT viability of skeletal muscle module in 4-organ system; conditions: 4-organ co-culture under flow, serum-free medium, 48 h drug treatment, day 7, vs control, DOX 5 μM, ATR 100 μM, VPA 2 mM, APAP 5 mM, AMAP 5 mM
Text: as §1, §2

neurons [8] = test: Neuronal viability by morphological analysis and cell count in 4-organ system; conditions: 4-organ co-culture under flow, serum-free medium, 48 h drug treatment, day 7, vs control, DOX 5 μM, ATR 100 μM, VPA 2 mM, APAP 5 mM, AMAP 5 mM
Text: as §1, §2

HepG2/C3A [9] = test: Human Serum Albumin quantification (ELISA), liver fraction of 4-organ system; type: cell-based; conditions: 4-organ co-culture under flow, 48 h drug treatment, vs control, DOX 5 μM, ATR 100 μM, VPA 2 mM, APAP 5 mM, AMAP 5 mM
Protocol: Human Serum Albumin (HSA) production from the liver fraction was tracked throughout the co-culture, by measuring the HSA concentration in the supernatant of the culture as it represents liver protein anabolism. Samples were collected from the exchanged medium (1.2 mL) and stored at −20 °C until analysis. One freeze-thaw cycle occurred before samples were analyzed following manufacturers’ instructions provided in the ELISA Starter Accessory Kit (Bethyl Laboratories Inc, Cat #: E101). Samples were diluted as necessary in sample conjugate/diluent buffer to ensure readings measured within the range of the standard curve. The standard curve was prepared by serial dilutions of human reference serum in sample conjugate/diluent buffer (0–1600 ng/ml).
Final HSA concentrations were calculated in an excel file by first removing the average OD reading measured for blanks from average sample and standard OD readings. Concentrations of standard dilutions were plotted against average OD values measured in XY scatter plots. A standard curve was created by adding an order of 2 polynomial trendline to XY scatter plots and selecting the option to display the equation of the trendline, as well as the R^2 value, on each scatter plot (for ease of analysis HSA sigmoidal curves were split into 3 standard curves with HSA concentration ranges of 0–200 ng/ml, 200–800 ng/ml and […]). Quadratic equations were rearranged to make X (sample HSA concentration) the unknown variant. Y values (OD values) and a/b/c constants generated from trendline equations were inputted into rearranged quadratic equations per assay. HSA concentrations calculated were corrected accordingly for any differences in culture final volumes, sample dilutions during assays and cells number.

HepG2/C3A [10] = test: MTT viability of liver module in 4-organ system; type: cell-based, human; conditions: 4-organ co-culture under flow, serum-free medium, 48 h drug treatment, day 7, vs control, DOX 5 μM, ATR 100 μM, VPA 2 mM, APAP 5 mM, AMAP 5 mM
Text: as §1, §2

Cardiomyocytes = system: Cardiomyocytes; design: method as in Literature; conditions: general toxic effects reported in the literature; ref Literature; cited from earlier work
[11] = therapeutic dosages; cited from earlier work
[12] = cited from earlier work

CC(=O)Nc1cccc(O)c1 [N-Acetyl-m-aminophenol]
Drug effects on cell functionality, Liver, Literature (Liver): Toxicity not reported
Drug effects on cell viability, Liver, Literature (Liver): Toxicity not reported
Drug effects on cell functionality, Neurons, Literature (Neurons [1]): Toxicity not reported
Drug effects on cell viability, Neurons, Literature (Neurons [1]): Toxicity not reported
Cardiomyocyte beating rate (beat frequency), decrease [2]: 25 ± 4% decrease in beating rate
Cardiomyocyte beating rate (beat frequency), decrease ([2]; listed as AMAP): 25 ± 4% and 30%
Neuronal repetitive and spontaneous firing ability (neurons [3]): conserved
Neuronal electrophysiology, overall effect (neurons [3]): Normal electrophysiology
Neuronal electrophysiology, overall effect (neurons [3]; listed as AMAP): no significant changes compared to the control
Cardiomyocyte viability, loss [4]: 28 ± 6% loss
Cardiomyocyte viability, loss ([4]; listed as AMAP): 28 ± 6% and 30%
Drug effects on cell functionality, Muscle, Literature (Muscle): Toxicity not reported
Drug effects on cell viability, Muscle, Literature (Muscle): Toxicity not reported
Urea production, increase (HepG2/C3A [5]; DOX 5 μM, ATR 100 μM, APAP 5 mM, AMAP 5 mM): 138 ± 19%
Skeletal muscle loss of contractile ability (share of cultures in which contraction ceased) (Human Skeletal Myofibers [6]): No loss in contractile ability
Skeletal muscle loss of contractile ability (share of cultures in which contraction ceased) (Human Skeletal Myofibers [6]; listed as AMAP): not affected
Skeletal muscle viability, loss (Human Skeletal Myofibers [7]): Toxicity not observed
Skeletal muscle viability, loss (Human Skeletal Myofibers [7]; listed as AMAP): not affected
Neuronal cell viability, loss (cell loss by morphology/cell count) (neurons [8]): Toxicity not observed, some increase in cell numbers but not significant
Neuronal cell viability, loss (cell loss by morphology/cell count) (neurons [8]; listed as AMAP): No significant effects; also recorded: some increase in cell numbers; also recorded: no change in viability
HSA (albumin) production, increase (HepG2/C3A [9]): 23 ± 4%
Liver (hepatocyte) cell viability, loss (HepG2/C3A [10]): Toxicity not observed
Liver (hepatocyte) cell viability, loss (HepG2/C3A [10]; listed as AMAP): No significant effects
Drug effects on cell functionality, Cardiomyocytes, Literature (Cardiomyocytes): Toxicity not reported
Drug effects on cell viability, Cardiomyocytes, Literature (Cardiomyocytes): Toxicity not reported

CCCC(CCC)C(=O)O [Valproic Acid, Valproic acid]
Concentration detected in patient plasma [11]: 300 to 700 µM
Drug effects on cell functionality, Neurons, Literature (Neurons [1]): Toxicity not reported
Drug effects on cell viability, Neurons, Literature (Neurons [1]): Toxicity not reported
Cardiomyocyte beating rate (beat frequency), increase [2]: 38 ± 18% increase in beating frequency
Cardiomyocyte beating rate (beat frequency), increase ([2]; listed as VPA): 38 ± 18%
Neuronal electrophysiology, overall effect (neurons [3]): Normal electrophysiology
Neuronal electrophysiology, overall effect (neurons [3]; listed as VPA): no changes compared to the control; also recorded: maintained the electrophysiological parameters
Drug effects on cell functionality, Muscle, Literature (Muscle): Toxicity not reported
Drug effects on cell viability, Muscle, Literature (Muscle): Toxicity not reported
Urea production, decrease (HepG2/C3A [5]; VPA 2 mM): 13 ± 2%
Concentration known to be cytotoxic in vitro [12]: around 2 mM
HSA (albumin) production, increase (HepG2/C3A [9]): not affected
HSA (albumin) production, increase (HepG2/C3A [9]; listed as VPA): no changes
Drug effects on cell functionality, Cardiomyocytes, Literature (Cardiomyocytes): Cardio-protective effect
Drug effects on cell viability, Cardiomyocytes, Literature (Cardiomyocytes): Cardio-protective effect
